Experimental data: article PMC9127186, “Molecular Basis Underlying Hepatobiliary and Renal Excretion of Phenolic Acids of Salvia miltiorrhiza Roots (Danshen)” (Frontiers in Pharmacology, 2022)

Key:
[1] = molecular target: T1, rat Oct3 (Rattus norvegicus, UniProt O88446); experiment: Cellular transport assay, HEK-293 cells expressing rat Oct3; conditions: Danshen phenolic acid at 100 μM final concentration, 10 min; rat Oct3-transfected vs mock cells
T1 sequence (O88446 1-551): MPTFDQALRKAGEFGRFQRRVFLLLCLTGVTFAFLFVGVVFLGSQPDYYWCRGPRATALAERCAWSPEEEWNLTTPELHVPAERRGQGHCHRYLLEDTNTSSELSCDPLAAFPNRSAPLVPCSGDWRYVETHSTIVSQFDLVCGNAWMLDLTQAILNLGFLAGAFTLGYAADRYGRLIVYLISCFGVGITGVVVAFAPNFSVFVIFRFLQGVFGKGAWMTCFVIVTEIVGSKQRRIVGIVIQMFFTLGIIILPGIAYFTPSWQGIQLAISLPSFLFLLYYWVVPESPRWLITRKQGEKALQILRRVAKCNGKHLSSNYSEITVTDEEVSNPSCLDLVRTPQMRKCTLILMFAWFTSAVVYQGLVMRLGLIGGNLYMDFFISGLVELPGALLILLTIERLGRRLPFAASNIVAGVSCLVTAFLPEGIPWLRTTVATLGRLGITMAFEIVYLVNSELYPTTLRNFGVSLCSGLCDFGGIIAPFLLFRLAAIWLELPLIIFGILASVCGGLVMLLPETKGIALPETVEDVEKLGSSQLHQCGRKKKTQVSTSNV

[2] = molecular target: T2, human OATP2B1 (Homo sapiens, UniProt O94956); experiment: Cellular transport assay, HEK-293 cells expressing human OATP2B1; conditions: Danshen phenolic acid at 100 μM final concentration, 10 min; human OATP2B1-transfected vs mock cells
T2 sequence (O94956 1-709): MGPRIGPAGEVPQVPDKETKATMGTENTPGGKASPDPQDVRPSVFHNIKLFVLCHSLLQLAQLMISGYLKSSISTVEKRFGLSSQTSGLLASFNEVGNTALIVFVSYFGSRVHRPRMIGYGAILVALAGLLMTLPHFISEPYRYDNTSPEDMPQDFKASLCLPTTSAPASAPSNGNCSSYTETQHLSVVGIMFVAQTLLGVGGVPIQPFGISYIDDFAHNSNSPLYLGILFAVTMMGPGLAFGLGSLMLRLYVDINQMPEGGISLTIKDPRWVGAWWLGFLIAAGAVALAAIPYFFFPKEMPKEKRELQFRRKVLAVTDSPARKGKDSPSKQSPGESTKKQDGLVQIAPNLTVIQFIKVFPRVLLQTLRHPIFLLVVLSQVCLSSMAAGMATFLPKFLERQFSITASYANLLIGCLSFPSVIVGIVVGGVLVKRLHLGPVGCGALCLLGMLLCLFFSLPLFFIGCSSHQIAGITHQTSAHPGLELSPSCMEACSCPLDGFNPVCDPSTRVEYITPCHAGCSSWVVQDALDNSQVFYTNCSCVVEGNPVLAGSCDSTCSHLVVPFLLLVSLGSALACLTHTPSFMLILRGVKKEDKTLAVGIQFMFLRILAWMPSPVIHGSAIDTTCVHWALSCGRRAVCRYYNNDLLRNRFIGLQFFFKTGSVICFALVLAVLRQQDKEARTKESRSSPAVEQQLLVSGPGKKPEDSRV

[3] = molecular target: T3, human PEPT2 (Homo sapiens, UniProt Q16348); experiment: Cellular transport assay, HEK-293 cells expressing human PEPT2; conditions: Danshen phenolic acid at 100 μM final concentration, 10 min, incubation pH 6.0; human PEPT2-transfected vs mock cells
T3 sequence (Q16348 1-729): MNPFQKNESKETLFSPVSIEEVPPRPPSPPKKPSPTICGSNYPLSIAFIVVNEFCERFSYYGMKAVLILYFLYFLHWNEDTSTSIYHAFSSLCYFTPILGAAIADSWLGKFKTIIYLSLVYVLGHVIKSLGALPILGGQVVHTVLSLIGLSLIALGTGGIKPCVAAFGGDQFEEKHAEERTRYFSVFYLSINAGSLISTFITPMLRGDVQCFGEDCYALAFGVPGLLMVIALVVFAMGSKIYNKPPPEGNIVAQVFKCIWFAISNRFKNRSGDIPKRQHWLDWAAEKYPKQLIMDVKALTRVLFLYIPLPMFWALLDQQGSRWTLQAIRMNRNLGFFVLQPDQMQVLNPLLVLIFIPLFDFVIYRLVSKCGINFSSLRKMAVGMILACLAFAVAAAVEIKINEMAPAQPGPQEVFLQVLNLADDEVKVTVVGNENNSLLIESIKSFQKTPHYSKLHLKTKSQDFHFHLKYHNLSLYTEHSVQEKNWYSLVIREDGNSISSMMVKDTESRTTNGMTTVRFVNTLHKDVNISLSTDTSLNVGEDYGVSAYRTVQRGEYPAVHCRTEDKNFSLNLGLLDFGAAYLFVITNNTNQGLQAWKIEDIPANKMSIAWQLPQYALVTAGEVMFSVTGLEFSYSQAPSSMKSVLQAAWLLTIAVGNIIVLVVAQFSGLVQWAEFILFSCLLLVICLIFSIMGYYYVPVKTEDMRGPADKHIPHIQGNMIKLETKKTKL

[4] = molecular target: T4, rat Oct2 (Rattus norvegicus, UniProt Q9R0W2); experiment: Cellular transport assay, HEK-293 cells expressing rat Oct2; conditions: Danshen phenolic acid at 100 μM final concentration, 10 min; rat Oct2-transfected vs mock cells
T4 sequence (Q9R0W2 1-555): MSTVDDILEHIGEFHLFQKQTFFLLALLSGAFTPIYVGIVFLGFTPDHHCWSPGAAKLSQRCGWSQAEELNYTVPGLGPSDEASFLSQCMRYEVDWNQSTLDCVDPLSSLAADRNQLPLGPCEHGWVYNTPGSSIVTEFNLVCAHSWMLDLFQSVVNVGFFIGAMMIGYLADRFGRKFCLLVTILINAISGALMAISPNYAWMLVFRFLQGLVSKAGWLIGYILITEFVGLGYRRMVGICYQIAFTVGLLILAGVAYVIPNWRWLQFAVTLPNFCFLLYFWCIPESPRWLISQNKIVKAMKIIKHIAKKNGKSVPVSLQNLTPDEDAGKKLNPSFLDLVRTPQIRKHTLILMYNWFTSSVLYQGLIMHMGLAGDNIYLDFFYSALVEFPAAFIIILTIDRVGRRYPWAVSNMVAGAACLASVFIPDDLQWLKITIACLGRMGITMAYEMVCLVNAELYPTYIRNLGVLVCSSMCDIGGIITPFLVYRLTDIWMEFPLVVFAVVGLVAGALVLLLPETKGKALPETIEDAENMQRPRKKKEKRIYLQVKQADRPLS

[5] = parameters: method as in Lu et al., 2008; conditions: ref Lu et al., 2008; cited from earlier work

| Compound | TransportTC/TransportMC ratio (net transport ratio) [1] | TransportTC/TransportMC ratio (net transport ratio) [2] | TransportTC/TransportMC ratio (net transport ratio) [3] | TransportTC/TransportMC ratio (net transport ratio) [4] | membrane permeability [5] |
| --- | --- | --- | --- | --- | --- |
| O=C(/C=C/c1ccc(O)c2c1[C@H](C(=O)O)[C@@H](c1ccc(O)c(O)c1)O2)O[C@H](Cc1ccc(O)c(O)c1)C(=O)O [Lithospermic acid, lithospermic acid] | 0.81 ± 0.13 | 1.16 ± 0.27 | 0.74 ± 0.06 | 1.11 ± 0.32 |  |
| O=C(O)c1ccc(O)c(O)c1 [Protocatechuic acid, protocatechuic acid] | 0.85 ± 0.11 | 1.36 ± 0.15 | 1.43 ± 0.32 | 0.92 ± 0.08 | fairly good |
| O=C(/C=C/c1ccc(O)c(O)c1)O[C@H](Cc1ccc(O)c(O)c1)C(=O)O [Rosmarinic acid, rosmarinic acid] | 0.74 ± 0.24 |  |  |  | poor |
| O=C(O)Cc1c(/C=C/C(=O)O[C@H](Cc2ccc(O)c(O)c2)C(=O)O)ccc(O)c1O [Salvianolic acid D, salvianolic acid D] | 0.93 ± 0.15 | 2.27 ± 1.16 | 1.03 ± 0.11 | 1.44 ± 0.24 | poor |
| salvianolic acid B | 0.84 ± 0.31 | 1.32 ± 0.33 | 1.06 ± 0.12 | 1.08 ± 0.21 |  |
